Test [1] has as its target Nucleic Acid. The test is described as follows: Inhibitory activity against bacterial DNA primase. The class given is nucleic-acid assay, Escherichia coli.
Test [2] concerns the target Nucleic Acid. As to the kind of experiment: Inhibitory activity against bacterial DNA primase in fluorescent intercalator dye displacement assay (FID). The class given is nucleic-acid assay, Escherichia coli.

pIC50: −log10 of the molar value.

What is called pIC50 is the IC50 on a negative log10 scale, so that one unit is a factor of ten. Low readings indicate a high IC50, high ones a low IC50. `O=C(OC[C@@H]1O[C@H](Oc2cc(O)cc(/C=C/c3ccc(O)cc3)c2)[C@@H](O)[C@@H](O)[C@@H]1O)c1cc(O)c(O)c(O)c1` had a pIC50 at Nucleic Acid [1] of 5.30. `O=C(O[C@@H]1[C@@H](Oc2cc(O)cc(/C=C/c3ccc(O)cc3)c2)O[C@@H](CO)[C@@H](O)[C@@H]1O)c1cc(O)c(O)c(O)c1`: the pIC50 against Nucleic Acid [1] and at Nucleic Acid [2] was 5.40 each time.

Values taken from ChEMBL document CHEMBL1137959, “Two new bacterial DNA primase inhibitors from the plant Polygonum cuspidatum” (Bioorg Med Chem Lett, 2004).
